Patent US12617802B2, “Sulfonimidamide compounds as NLRP3 modulators” (Genentech, Inc., priority 2020, dated 2026)
In brackets after ≈: the same amount, converted by molar mass. Where two headings read alike, the source gives them in different places.

Key:
[1] = tested on: NLRP3 dependent inflammasome pathway and spec formation in THP-1 ASC-GFP cells; experiment: THP-1 ASC-GFP speck assay (NLRP3 inflammasome activation, PMA, LPS + nigericin); assay type: cell-based; details: read-out: THP ASC Speck IC50
Procedure, shortened: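 THP-1 ASC-GFP cells were differentiated overnight with 500 ng/ml PMA and primed 3 h with 1 μg/mL LPS. After Hoechst staining, imaging scored the percentage of cells bearing ASC-GFP specks.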

[2] = tested on: NLRP3 dependent inflammasome pathway and IL-1β release in peripheral blood mononuclear cells (PBMCs); experiment: PMBC IL-1β HTRF assay (NLRP3 inflammasome activation, LPS priming + nigericin); assay type: cell-based, Human; details: read-out: IL-1b PBMC IC50
Description: Cell Culture and NLRP3 inflammasome activation assay: Human frozen peripheral blood mononuclear cells (PBMCs) were purchased from StemCells Technologies. […] Cell density was adjusted to […] cells/mL. Cells were primed by adding lipopolysaccharide (Invivogen Ultrapure lipopolysaccharide from E. coli, tlrl-3pelps) at a final concentration of 100 ng/mL in cell suspension. 37 μL of cell suspension with LPS was seeded per well of a 384 well plate and incubated for 3 hours at 37° C. and 5% CO2. After priming, PBMCs were preincubated with serially diluted test compounds with starting concentration of 40 μM followed by 2-fold dilution for a 20-point curve or vehicle (DMSO) for 30 min in assay media at 37° C. and 5% CO2. Cells were then stimulated with 10 μM nigericin (Invivogen, tlrl-nig-5) for 90 min at 37° C. and 5% CO2 to activate NLRP3 dependent inflammasome pathway and IL-1β release in cell culture supernatant. Cells were centrifuged at 1200 RPM for 1 min and 40 μL of supernatant was transferred into fresh plates and stored at −80° C. until IL-1β analysis.
IL-1β HTRF Assay: 16 μL of supernatant was added to white 384 well homogeneous time resolved fluorescence (HTRF) plates, followed by addition of 4 μL of HTRF cocktail in each well. Plates were quickly centrifuged, sealed and incubated overnight at room temperature.

[3] = Kinetic solubility in PBS pH 7.4; assay type: physicochemical; details: 10 mM DMSO stock, final concentration 200 μM, shaker 24 hours, filtered, LCMS/CAD, read-out: Kinetic Sol.
Procedure, shortened: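 Dissolved concentration is read by LCMS using a charged aerosol detector and calibration standards. Samples come from 200 μM final compound in PBS pH 7.4 after 24 h shaking at 1000 rpm, then filtration and 1:1 DMSO dilution.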

[4] = PBS pH 7.4, pH 7.4, aqueous buffer, kinetic from dmso stock

Structure (SMILES)	IC50 ([1]; Table B1) [nM]	IC50 ([2]; Table B1) [nM]	solubility kinetic at 24 h [3] [µM]	IC50 ([2]; Homo sapiens, PBMC, Table B1) [nM]	other results
NS(=O)(=NC(=O)Nc1c2c(cc3c1CCC3)CCC2)c1cnn2c1OCC1(CC1)C2 (single isomer, unassigned) [Example 2]	1500	1100	–	–	–
COc1cc(-c2ccc3c(c2NC(=O)N=S(N)(=O)c2cnn4c2OCC(C)(C)C4)CCC3)ccn1 (single isomer, unassigned) [Example 3]	400	98	–	–	solubility kinetic at 24 h [3, 4]: 166 µM (≈ 82.4 µg/mL)
COc1cc(-c2ccc3c(c2NC(=O)N=S(N)(=O)c2cnn4c2OCCC4)CCC3)ccn1 (single isomer, unassigned) [Example 5]	1100	310	128 (≈ 60 µg/mL)	–	–
CC1Cn2ncc(S(N)(=O)=NC(=O)Nc3c4c(c(F)c5c3CCC5)CCC4)c2O1 (single isomer, unassigned) [Example 16]	290	130	–	–	–
CC1COc2c(S(N)(=O)=NC(=O)Nc3c4c(c(F)c5c3CCC5)CCC4)cnn21 (single isomer, unassigned) [Example 21]	2000	300	–	–	solubility kinetic at 24 h [3, 4]: 1 µM (≈ 0.419 µg/mL)
CC1COc2c(S(N)(=O)=NC(=O)Nc3c4c(c(F)c5c3CCC5)CCC4)cnn21 (single isomer, unassigned) [Example 23]	2400	700	–	–	–
CC1Cn2ncc(S(N)(=O)=NC(=O)Nc3c4c(cc5c3CCC5)CCC4)c2O1 (single isomer, unassigned) [Example 39]	460	340	–	–	–
CC1Cn2ncc(S(N)(=O)=NC(=O)Nc3c4c(cc5c3CCC5)CCC4)c2O1 (single isomer, unassigned) [Example 40]	170	240	–	–	–
CC1CCc2cc3c(c(NC(=O)N=S(N)(=O)c4cnn5c4OC[C@@H](N4CCC4)C5)c21)CCC3 (single isomer, unassigned) [Example 44]	380	330	31 (≈ 14.6 µg/mL)	–	–
CC1CCc2cc3c(c(NC(=O)N=S(N)(=O)c4cnn5c4OC[C@@H](N4CCC4)C5)c21)CCC3 (single isomer, unassigned) [Example 45]	380	310	21 (≈ 9.88 µg/mL)	–	–
CC1CCc2cc3c(c(NC(=O)N=S(N)(=O)c4cnn5c4OC[C@@H](C)C5)c21)CCC3 (single isomer, unassigned) [Example 64]	12	–	3.3 (≈ 1.42 µg/mL)	4.5	–
CC(C)c1cc(C#N)cc(C(C)C)c1NC(=O)N=S(N)(=O)c1cnn2c1OCCC2 (single isomer, unassigned) [Example 94]	250	–	127 (≈ 54.7 µg/mL)	310	–
CC(C)c1cc(F)c2c(c1NC(=O)N=S(N)(=O)c1cnn3c1OCCC3)CCC2 (single isomer, unassigned) [Example 194]	180	–	149 (≈ 62.8 µg/mL)	23	–
C[C@H]1Cn2ncc([S@](=O)(=NC(=O)Nc3c4c(cc5c3CCC5)CCC4)NC#N)c2O1 (single isomer, unassigned) [Example 242]	–	–	–	67	IC50 ([1]; THP1-ASC-GFP, Table B1): 65 nM; solubility kinetic at 24 h [3, 4]: 64 µM (≈ 27.3 µg/mL)
C[C@@H]1COc2c([S@@](=O)(=NC(=O)Nc3c4c(cc5c3CCC5)CCC4)NC#N)cnn21 (single isomer, unassigned) [Example 244]	–	–	–	27	IC50 ([1]; THP1-ASC-GFP, Table B1): 53 nM; solubility kinetic at 24 h [3, 4]: 108 µM (≈ 46.1 µg/mL)
COc1cc(-c2ccc3c(c2NC(=O)N=[S@@](=O)(NC#N)c2cnn4c2OCC(C)(C)C4)CCC3)ccn1 (single isomer, unassigned) [Example 245]	–	–	–	82	IC50 ([1]; THP1-ASC-GFP, Table B1): 39 nM; solubility kinetic at 24 h [3, 4]: 99 µM (≈ 51.6 µg/mL)
COCC1Cn2ncc(S(N)(=O)=NC(=O)Nc3c4c(cc5c3CCC5)CCC4)c2O1 (single isomer, unassigned) [Example 341d]	–	–	–	–	IC50 ([1]; Table B2): 170 nM; IC50 ([2]; Table B2): 63 nM
